Data set [1] is described as follows: Hydrolysis rate / drug release rate of the compounds (release of JAK inhibitor, HPLC). As to conditions: % release of JAK inhibitor from sample in acetonitrile/water=7/3 (v/v), 37° C. constant temperature shaker, sampled days 1-4, HPLC. It counts as physicochemical. In outline:
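HPLC quantified parent JAK inhibitor freed from each compound, calibrated with 0.0002–0.08 mg/mL standards. Samples in acetonitrile/water 7/3 were kept sealed at 37° C and analysed at day 0 and on days 1 to 4. % release was computed from sample weight, curve slope/intercept and the molecular-weight ratio.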

The subject of data set [2] is IMQ-induced psoriasis mouse model. The data set can be described thus: IMQ-induced psoriasis mouse model, PASI score of compound ointments applied to skin. Type of data set: in vivo. The note with it: ointment 20 mg/g, 50 mg, skin smear BID, day 1 to day 9; BALB/c mice, 5% IMQ cream; Two-way ANOVA p<0.05. How it is done:
Efficacy Evaluation Study of Ointment Transdermal Patch Formulated by Compounds Using IMQ-Induced Psoriasis Mouse Model
BALB/c mice (male) aged 6-8 weeks were selected to have depilated back skin with an area of 2×3 cm. 5% IMQ cream 62.5 mg was applied once a day for 9 consecutive days for model induction. Mice were housed in an SPF-grade animal room in IVC cages at a temperature of 20-26° C. and a humidity of 40-70% under a 12-hour light-dark cycle. Diet ad libitum, except where fasting is required.
Mice were randomly divided into groups, a number of 8 mice, administration concentration 20 mg/g, administration amount 50 mg, administration route, and frequency: skin smear, BID. The positive control was compound dexamethasone acetate (Dex) cream which is a commercially available product with a Dex content of 0.75 mg/g (999 Piyanping, Sanjiu Pharmaceutical). Dosing started from day 1 (the first day) (the day of model induction) to day 9.
2. Preparation of Test Ointment
Topical preparations are mostly semi-solid dosage forms. The base and solvent of a semi-solid dosage form are generally widely used in medicine and daily chemical products. The excipients which can be added are also the common excipients in the manual of excipients. Therefore, the patent compounds are prepared into corresponding test ointments. The ointment compound was dissolved with diisopropyl adipate to prepare a vaseline-based ointment. In order to improve the stability of the ointment, microcrystalline cellulose was added as an excipient in the formulation. The white vaseline has a melting point of 45-60° C. The solution, white vaseline, and microcrystalline cellulose are thoroughly mixed while the vaseline is in a molten state. After cooling to solidification, it was divided into an aluminum ointment, and the specific weight ratios of base, solvent, and excipients are shown in Table 4.
Dorsal modeling site skin PASI was performed on the experimental animals.
Statistical analysis of PASI scores was performed using Two-way ANOVA. All data were analyzed using GraphPad Prism 8.0 software with a p<0.05 significant difference (*, p<0.05; **, p<0.01).
The PASI score curves of CPD-029, CPD-028, CPD-027, CPD-017, and CPD-002 compared with the model group, excipient group, and Dex cream group are shown in FIGS. 1, 2, 3, 4, and 5, respectively. Among them, the model group was treated with 62.5 mg of 5% IMQ cream applied to the back skin of mice once daily to induce psoriasis, and the excipient group was treated with 15% (w/w) diisopropyl adipate, 80% vaseline, and […].

`CC(C)Cc1ccc([C@H](C)C(=O)n2ccc3c(N(C)[C@H]4CN(C(=O)CC#N)CC[C@H]4C)ncnc32)cc1` [Ex. 2, 3-((3R,4R)-3-((7-((S)-2-(4-isobutylphenyl)propanoyl)-7H-pyrrolo[2,3-d]pyrimidin-4-yl) (methyl)amino)-4-methylpiperidin-1-yl)-3-oxopropanenitrile]: the “Release Rate (%/day)” value in data set [1] is 8.5 %/day. Moreover, the “PASI score: therapeutic effect compared with the excipient group” value in data set [2] is recorded as “significant therapeutic effect in day 4 day 8”.

Consider `CCS(=O)(=O)N1CC(CC#N)(n2cc(-c3ncnc4c3ccn4C(=O)[C@@H](C)c3ccc(CC(C)C)cc3)cn2)C1` [Ex. 17, (S)-2-(1-(ethylsulfonyl)-3-(4-(7-(2-(4-isobutyl-phenyl)propanoyl)-7H-pyrrolo[2,3-d]pyrimidin-4-yl)-1H-pyrazol-1-yl)azetidin-3-yl)acetonitrile], for which, in data set [1], the “Release Rate (%/day)” value worked out at 2.44 %/day. In data set [2], the “PASI score: therapeutic effect compared with the excipient group” value is listed as “significant therapeutic effect in day 5-day 10”.

Consider `CNS(=O)(=O)CC1CCC(N(C)c2ncnc3c2ccn3C(=O)[C@@H](C)c2ccc(CC(C)C)cc2)CC1` (stereo partly drawn) [Ex. 27, 1-((1S, 4R)-4-((7-((S)-2-(4-isobutylphenyl)propanoyl)-7H-pyrrolo [2,3-d]pyrimidin-4-yl) (methyl)amino)cyclohexyl)-N-methyl methanesulfonamide], for which the “Release Rate (%/day)” value in data set [1] is given as 7.48 %/day. Besides, the “PASI score: therapeutic effect compared with the excipient group” value in data set [2] is listed as “significant therapeutic effect in day 5-day 10”.

For the compound `CC(C)Cc1ccc([C@H](C)C(=O)n2ccc3c(-c4cnn([C@H](CC#N)C5CCCC5)c4)ncnc32)cc1` [Ex. 28], in data set [1], the “Release Rate (%/day)” value was 2.98 %/day. In addition, in data set [2], the “PASI score: therapeutic effect compared with the excipient group” value is “significant therapeutic effect in day 5-day 10”.

With `CCC(C(=O)n1ccc2c(N(C)[C@H]3CN(C(=O)CC#N)CC[C@H]3C)ncnc21)c1ccc(N2Cc3ccccc3C2=O)cc1` (stereo partly drawn) [Ex. 29, 3-((3R, 4R)-4-methyl-3-(methyl (7-(2-(4-(1-oxoisoindolin-2-yl)phenyl)butanoyl)-7H-pyrrolo [2,3-d]pyrimidin-4-yl)amino)piperidin-1-yl)-3-oxopropanenitrile], the “Release Rate (%/day)” value in data set [1] came to 7.08 %/day. Besides, the “PASI score: therapeutic effect compared with the excipient group” value in data set [2] was “significant therapeutic effect in day 5-day 10”.

For the origin of these results see patent publication US12290519B2, “Anti-inflammatory coupling compound drug, and preparation method therefor and use thereof” (COVAL BIOPHARMA (SHANGHAI) CO., LTD., priority 2021, dated 2025).
